Experimental data from patent US8163754B2, “Purine derivatives for use as adenosine A-2A receptor agonists” (Novartis AG, priority 2004, dated 2012).
Structures can show the parent of a compound that is named as a salt.

The molecules below were run against adenosine A2A receptor (Homo sapiens, UniProt P29274) (assay: A2A receptor agonist assay, method of Murphree et al, Molecular Pharmacology 61, 455-462 (2002)). Details: method of L. J. Murphree et al.
adenosine A2A receptor, sequence (P29274 whole entry): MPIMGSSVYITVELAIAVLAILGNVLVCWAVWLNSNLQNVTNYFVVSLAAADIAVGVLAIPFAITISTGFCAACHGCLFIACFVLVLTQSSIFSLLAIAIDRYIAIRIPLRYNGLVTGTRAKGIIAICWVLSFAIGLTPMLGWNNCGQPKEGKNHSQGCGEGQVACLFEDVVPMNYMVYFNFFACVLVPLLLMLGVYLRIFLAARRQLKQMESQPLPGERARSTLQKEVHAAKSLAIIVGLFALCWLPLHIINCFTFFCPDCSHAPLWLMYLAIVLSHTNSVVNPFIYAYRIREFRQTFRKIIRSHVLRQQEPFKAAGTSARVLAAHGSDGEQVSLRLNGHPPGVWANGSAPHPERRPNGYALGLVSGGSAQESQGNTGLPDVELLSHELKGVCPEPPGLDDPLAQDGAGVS
Assay type: binding
Description: Compounds of formula I and their pharmaceutically acceptable salts are useful as pharmaceuticals. In particular, they activate the adenosine A2A receptor, i.e. they act as A2A receptor agonists.
Molecule CCCCC#Cc1nc(NCC(c2ccccc2)c2ccccc2)c2ncn([C@@H]3C[C@H](NC(=O)CC)[C@@H](O)[C@H]3O)c2n1 [Example 6, N-{(1S,2R,3S,4R)-4-[6-(2,2-Diphenyl-ethylamino)-2-hex-1-ynyl-purin-9-yl]-2,3-dihydroxy-cyclopentyl}-propionamide] has a Ki of 8 nM.
For CCC(=O)N[C@H]1C[C@@H](n2cnc3c(N)nc(NCCc4ccccc4)nc32)[C@H](O)[C@@H]1O [Example 2, N-[(1S,2R,3S,4R)-4-(6-Amino-2-phenethylamino-purin-9-yl)-2,3-dihydroxy-cvclcpentyl]-propionamide trifluoroacetate], the Ki was 18 nM.
For CCC(=O)N[C@H]1C[C@@H](n2cnc3c(NCCC(c4ccccc4)c4ccccc4)nc(NCCc4cn(CC)cn4)nc32)[C@H](O)[C@@H]1O [Example 61, N-((1S,2R,3S,4R)-4-{6-(3,3-diphenyl-propyl-amino)-2-[2-(1-ethyl-1H-imidazol-4-yl)-ethylamino]-purin-9-yl-2,3-dihydroxy-cyclopentyl}-propionamide trifluoroacetate], the Ki was 9 nM.
NC1CCN(c2nc(NCC(c3ccccc3)c3ccccc3)c3ncn(C4CC(NC(=O)C5CCC5)C(O)C4O)c3n2)C1 [Example 33, Cyclobutanecarboxylic acid {(1S,2R,3S,4R)-4-[2-((R)-3-amino-pyrrolidin-1-yl)-6-(2,2-diphenyl-ethylamino-3)-purin-9-yl]-2,3-dihydroxy-cyclopentyl}-amide] gave a Ki of 52 nM.
CCC(=O)N[C@H]1C[C@@H](n2cnc3c(NCC(c4ccccc4)c4ccccc4)nc(C(=O)NCCNC(=O)N[C@H]4CCN(c5ccccn5)C4)nc32)[C@H](O)[C@@H]1O [Example 47, 9-((1R,2S,3R,4S)-2,3-Dihydroxy-4-propionylamino-cyclopentyl)-6-(2,2-diphenyl-ethylamino)-9H-purine-2-carboxylic acid {2-[3-((S)-1-pyridin-2-yl-pyrrolidin-3-yl)-ureido]-ethyl}-amide trifluoroacetate] was tested, and the Ki was 2 nM.
CCC(=O)N[C@H]1C[C@@H](n2cnc3c(NCC(c4ccccc4)c4ccccc4)nc(C(=O)NCCNC(=O)NC4CCN(c5ccccn5)CC4)nc32)[C@H](O)[C@@H]1O [Example 38, 9-((1R,2S,3R,4S)-2,3-Dihydroxy-4-propionylamino-cyclopentyl)-6-(2,2-diphenyl-ethylamino)-9H-purine-2-carboxylic acid {2-[3-(3,4,5,6-tetrahydro-2H-[1,2]bipyridinyl-4-yl)ureido]-ethyl}-amide] gave a Ki of 2 nM.
With CCC(=O)N[C@H]1C[C@@H](n2cnc3c(NCC(c4ccccc4)c4ccccc4)nc(N4CC[C@@H](NC(=O)N[C@@H]5CCNC5)C4)nc32)[C@H](O)[C@@H]1O [Example 39, N-((1S,2R,3S,4R)-4-{6-(2,2-Diphenyl-ethylamino)-2-[(R)-3-((R)-3-pyrrolidin-3-ylureido)-pyrrolidin-1-yl]-purin-9-yl}-2,3-dihydroxy-cyclopentyl)-propionamide trifluoroacetate] the Ki was 3 nM.
